According to PMC7203344, “Sirtuin 1 Inhibiting Thiocyanates (S1th)—A New Class of Isotype Selective Inhibitors of NAD^+ Dependent Lysine Deacetylases” (Frontiers in Oncology, 2020):

Legend:
deubiquitinases (DUBs) = assay: DUB labeling on HEK293T cell lysate with Rhodamine-Ub-PA probe; format: biochemical, human; design: key to Qualitative pan-DUB inhibition @ 10 μM / Qualitative pan-DUB inhibition @ 50 μM: n.i.: no inhibition (<10%); +: low inhibition; +++: full inhibition; conditions: for Qualitative pan-DUB inhibition @ 10 μM / Qualitative pan-DUB inhibition @ 50 μM: HEK293T cell lysate
Protocol: Pan-inhibition of deubiquitinases (DUBs) was tested using HEK293T cell lysate (human embryonic kidney cells, human). Cells were harvested and resuspended in HR buffer (50 mM Tris, 5 mM MgCl2, 250 mM sucrose, 1 mM DTT, pH 7.4). Cell lysis was achieved by sonication (Bioruptor, Diagenode, high intensity for 10 min with an ON/OFF cycle of 30 s) at 4°C and the cell debris was removed by centrifugation at 13,500 rpm for 15 min. Cell lysate protein concentration was determined with a NanoDrop spectrophotometer (NanoDrop One™ Spektrophotometer, Thermo Fisher, MA, USA) by measuring absorbance at 280 nm. Nineteen microliter of the lysate (2 μg/μL) were incubated with inhibitors dissolved in DMSO at various concentrations or DMSO as a control for 30 min at 37°C. Afterwards 1 μL of Rhodamine-Ub-PA (1 μM final assay concentration) was added to each sample, followed by further incubation for 40 min at 37°C ([61]). The labeling reaction was stopped by addition of NuPAGE 4× LDS sample buffer (Invitrogen Life Technologies, Carlsbad, CA, USA) containing β-mercaptoethanol and boiling for 7 min at 95°C. The proteins of the samples as well as protein marker (PageRuler™ Pre-stained Protein Ladder, 10–250 kDa, Thermo Fisher, MA, USA) were resolved by a 4–12% SDS-PAGE using the NuPAGE system with MOPS running buffer (Invitrogen Life Technologies, Carlsbad, CA, USA). The resulting gel was scanned with a Typhoon imager (GE Healthcare Life Sciences, USA) to visualize the Rhodamine-Ub-PA probe and Cy5 (marker). Subsequently the gel was stained with InstantBlue™ Protein Stain (Expedeon, UK) and scanned on a Amersham scanner (Amersham Typhoon gel and blot imaging system, GE Healthcare Life Sciences, USA).

HeLa cells = assay: Wound healing assay with HeLa cells; format: cell-based, human; conditions: 24 h; S1th 13 12 μM
Protocol: For wound healing assay 6 × 10^5 cells per well were seeded in 6-well plates and grown for 24 h in DMEM containing 10% FBS. After 24 h, a lineal gap between cells was created in the middle of the plate by scratching the cell monolayer with a 1 mL pipette tip in the same position in each well. Once the scratching is done, plates were washed twice with PBS and then grown in DMEM containing 1% FBS and the drugs in the same concentrations as for the proliferation assay. As described previously, the growth media 1% FBS containing the drugs was replaced every 48 h. Images were acquired in an Optimal microscope (Leica microscopes, DE) using Leica Application Suite X (LAS X) every 24 h (0, 24, 48, and 72 h) until the gap closed. The quantification of the area of the gap at the indicated times was performed with Image J-MRI Wound Healing Tool. The experiment was performed only once.

## N#CSc1cc(SC#N)c(N)nc1N [PR-619, reference compound]
Deubiquitinases (DUBs)
  Qualitative pan-DUB inhibition @ 10 μM: +
  Qualitative pan-DUB inhibition @ 50 μM: +++
Deubiquitinases (DUBs); HEK cell lysate, Rhodamine-Ub-PA probe
  inhibition of DUBs (in words): inhibits all DUBs tested in a concentration dependent manner

## N#CSc1cccc(NC(=O)[C@H]2CC=CC[C@H]2C(=O)O)c1 [S1th 10]
Deubiquitinases (DUBs)
  Qualitative pan-DUB inhibition @ 10 μM: n.i. (no inhibition (<10%))
  Qualitative pan-DUB inhibition @ 50 μM: n.i. (no inhibition (<10%))

## CCCCNC(=O)Nc1cccc(SC#N)c1 [S1th 11]
Deubiquitinases (DUBs)
  Qualitative pan-DUB inhibition @ 10 μM: n.i. (no inhibition (<10%))
  Qualitative pan-DUB inhibition @ 50 μM: n.i. (no inhibition (<10%))

## COc1ccc(SC#N)cc1OCC(=O)N(CCC#N)CCC#N [S1th 12]
Deubiquitinases (DUBs)
  Qualitative pan-DUB inhibition @ 10 μM: n.i. (no inhibition (<10%))
  Qualitative pan-DUB inhibition @ 50 μM: n.i. (no inhibition (<10%))

## N#CSc1cccc(NS(=O)(=O)c2ccc3c(c2)OCCO3)c1 [S1th 13]
Deubiquitinases (DUBs)
  Qualitative pan-DUB inhibition @ 10 μM: n.i. (no inhibition (<10%))
  Qualitative pan-DUB inhibition @ 50 μM: n.i. (no inhibition (<10%))
HeLa cells
  lower reduction of total wound area compared to control without drug: ~ 50%
